Measurements as given in ChEMBL document CHEMBL1649519, “Mitochondrial DNA depletion in rat liver induced by fosalvudine tidoxil, a novel nucleoside reverse transcriptase inhibitor prodrug” (Antimicrob Agents Chemother, 2009).

Tests used:
Details in all cases: in vivo
[1] = system: Rattus norvegicus; test: Hepatotoxicity in Sprague-Dawley rat assessed as effect on plasma total bilirubin level at 15 to 100 mg/kg, po administered via gavage; type: toxicity, organism-based; design: dose 15-100 mg/kg, route oral
[2] = system: Rattus norvegicus; test: Hepatotoxicity in Sprague-Dawley rat assessed as copies of mitochondrial DNA per cell in liver at 100 mg/kg, po administered via gavage (reference value: 400 +/- 86 no_unit); type: toxicity, organism-based; design: dose 100 mg/kg, route oral
[3] = system: Rattus norvegicus; test: Hepatotoxicity in Sprague-Dawley rat assessed as plasma GPT level at 100 mg/kg, po administered via gavage (reference value: 78.3 +/- 8.2 U/l); type: toxicity, organism-based; design: dose 100 mg/kg, route oral
[4] = system: Rattus norvegicus; test: Toxicity in Sprague-Dawley rat assessed as terminal body weight at 100 mg/kg, po administered via gavage (reference value: 517 +/- 55 g); type: organism-based; design: dose 100 mg/kg, route oral
[5] = system: Rattus norvegicus; test: Hepatotoxicity in Sprague-Dawley rat assessed as copies of mitochondrial DNA per cell in sciatic nerves at 100 mg/kg, po administered via gavage (reference value: 457 +/- 182 no_unit); type: toxicity, organism-based, Sciatic nerve; design: dose 100 mg/kg, route oral
[6] = system: Rattus norvegicus; test: Toxicity in Sprague-Dawley rat assessed as liver weight at 100 mg/kg, po administered via gavage (reference value: 18 +/- 2.8 g); type: organism-based; design: dose 100 mg/kg, route oral
[7] = system: Rattus norvegicus; test: Hepatotoxicity in Sprague-Dawley rat assessed as copies of mitochondrial DNA per cell in gastrocnemius muscle at 100 mg/kg, po administered via gavage (reference value: 457 +/- 182 no_unit); type: toxicity, organism-based; design: dose 100 mg/kg, route oral
[8] = system: Rattus norvegicus; test: Toxicity in Sprague-Dawley rat assessed as mortality at 100 mg/kg, po administered via gavage; type: organism-based; design: dose 100 mg/kg, route oral
[9] = system: Rattus norvegicus; test: Hepatotoxicity in Sprague-Dawley rat assessed as copies of mitochondrial DNA per cell in inguinal fat pads at 100 mg/kg, po administered via gavage (reference value: 457 +/- 182 no_unit); type: toxicity, organism-based, Fat pad; design: dose 100 mg/kg, route oral
[10] = system: Rattus norvegicus; test: Hepatotoxicity in Sprague-Dawley rat assessed as copies of mitochondrial DNA per cell in inguinal fat pads at 40 mg/kg, po administered via gavage (reference value: 457 +/- 182 no_unit); type: toxicity, organism-based, Fat pad; design: dose 40 mg/kg, route oral
[11] = system: Rattus norvegicus; test: Toxicity in Sprague-Dawley rat assessed as mortality at 15 mg/kg, po administered via gavage; type: organism-based; design: dose 15 mg/kg, route oral
[12] = system: Rattus norvegicus; test: Hepatotoxicity in Sprague-Dawley rat assessed as plasma GPT level at 40 mg/kg, po administered via gavage (reference value: 78.3 +/- 8.2 U/l); type: toxicity, organism-based; design: dose 40 mg/kg, route oral
[13] = system: Rattus norvegicus; test: Hepatotoxicity in Sprague-Dawley rat assessed as copies of mitochondrial DNA per cell in inguinal fat pads at 15 mg/kg, po administered via gavage (reference value: 457 +/- 182 no_unit); type: toxicity, organism-based, Fat pad; design: dose 15 mg/kg, route oral
[14] = system: Rattus norvegicus; test: Toxicity in Sprague-Dawley rat assessed as liver weight at 15 mg/kg, po administered via gavage (reference value: 18 +/- 2.8 g); type: organism-based; design: dose 15 mg/kg, route oral
[15] = system: Rattus norvegicus; test: Hepatotoxicity in Sprague-Dawley rat assessed as copies of mitochondrial DNA per cell in sciatic nerves at 15 mg/kg, po administered via gavage (reference value: 457 +/- 182 no_unit); type: toxicity, organism-based, Sciatic nerve; design: dose 15 mg/kg, route oral
[16] = system: Rattus norvegicus; test: Toxicity in Sprague-Dawley rat assessed as terminal body weight at 40 mg/kg, po administered via gavage (reference value: 517 +/- 55 g); type: organism-based; design: dose 40 mg/kg, route oral
[17] = system: Rattus norvegicus; test: Toxicity in Sprague-Dawley rat assessed as liver weight at 40 mg/kg, po administered via gavage (reference value: 18 +/- 2.8 g); type: organism-based; design: dose 40 mg/kg, route oral
[18] = system: Rattus norvegicus; test: Hepatotoxicity in Sprague-Dawley rat assessed as copies of mitochondrial DNA per cell in liver at 40 mg/kg, po administered via gavage (reference value: 400 +/- 86); type: toxicity, organism-based; design: dose 40 mg/kg, route oral
[19] = system: Rattus norvegicus; test: Toxicity in Sprague-Dawley rat assessed as mortality at 40 mg/kg, po administered via gavage; type: organism-based; design: dose 40 mg/kg, route oral
[20] = system: Rattus norvegicus; test: Hepatotoxicity in Sprague-Dawley rat assessed as copies of mitochondrial DNA per cell in sciatic nerves at 40 mg/kg, po administered via gavage (reference value: 457 +/- 182 no_unit); type: toxicity, organism-based, Sciatic nerve; design: dose 40 mg/kg, route oral
[21] = system: Rattus norvegicus; test: Toxicity in Sprague-Dawley rat assessed as terminal body weight at 15 mg/kg, po administered via gavage (reference value: 517 +/- 55 g); type: organism-based; design: dose 15 mg/kg, route oral
[22] = system: Rattus norvegicus; test: Hepatotoxicity in Sprague-Dawley rat assessed as copies of mitochondrial DNA per cell in liver at 15 mg/kg, po administered via gavage (reference value: 400 +/- 86); type: toxicity, organism-based; design: dose 15 mg/kg, route oral
[23] = system: Rattus norvegicus; test: Hepatotoxicity in Sprague-Dawley rat assessed as copies of mitochondrial DNA per cell in gastrocnemius muscle at 15 mg/kg, po administered via gavage (reference value: 457 +/- 182 no_unit); type: toxicity, organism-based; design: dose 15 mg/kg, route oral
[24] = system: Rattus norvegicus; test: Hepatotoxicity in Sprague-Dawley rat assessed as plasma GPT level at 15 mg/kg, po administered via gavage (reference value: 78.3 +/- 8.2 U/l); type: toxicity, organism-based; design: dose 15 mg/kg, route oral
[25] = system: Rattus norvegicus; test: Hepatotoxicity in Sprague-Dawley rat assessed as copies of mitochondrial DNA per cell in gastrocnemius muscle at 40 mg/kg, po administered via gavage (reference value: 457 +/- 182 no_unit); type: toxicity, organism-based; design: dose 40 mg/kg, route oral

Compound | Activity [1] | Activity [2] | Activity [3] [U/L] | Activity [4] [g] | Activity [5] | Activity [6] [g] | Activity [7] | Activity [8] | Activity [9] | also measured
O=c1[nH]cnc2c1ncn2[C@H]1CC[C@@H](CO)O1 [DIDANOSINE] | Non-toxic | 193 | 68.8 | 501 | 219 | 16.2 | 489 | Non-toxic | 129 | 
CCCCCCCCCCCCSC[C@@H](COP(=O)(O)OC[C@H]1O[C@@H](n2cc(C)c(=O)[nH]c2=O)C[C@@H]1F)OCCCCCCCCCC [FOSALVUDINE TIDOXIL] | Non-toxic | 188 | 96.7 | 428 | 213 | 14.5 | 548 | Toxic | 158 | Activity [10]: 159; Activity [11]: Toxic; Activity [12]: 80.5 U/L; Activity [13]: 134; Activity [14]: 16.8 g; Activity [15]: 196; Activity [16]: 465 g; Activity [17]: 15.6 g; Activity [18]: 254; Activity [19]: Toxic; Activity [20]: 205; Activity [21]: 459 g; Activity [22]: 249; Activity [23]: 475; Activity [24]: 71 U/l; Activity [25]: 534
